We go through 1 compound from paper PMC11429909, “Protein Structure Inspired Discovery of a Novel Inducer of Anoikis in Human Melanoma” (Cancers, 2024).

“Also recorded” adds a separate entry of the source.

Common to all, as to assay type: cell-based, human
One experiment deals with cleaved caspase 3. The experiment can be described thus: Western blot for cleaved caspase 3, M14. Particulars: up to 10 µM, three days. The procedure: (§1) After treatment of M14 and SK-MEL-5 cells with different concentrations of Dxr2-017 or vehicle for 3 or 8 days, as denoted, cell images were captured at 20X in a transmitted light channel using the EVOS™ M5000 Imaging System (Invitrogen (Waltham, MA, USA)). Western blots were performed as previously described by us. Briefly, cells were collected and lysed using RIPA lysis buffer (25 mM Tris-HCl pH 7.6, 150 mM NaCl, 1% NP-40, 1% sodium deoxycholate, and 0.1% SDS; Thermo Scientific^TM (Waltham, MA, USA), #89900), supplemented with protease and phosphatase inhibitor cocktail (Thermo Scientific^TM, #78442) and 1 mM of PMSF. Resultant Western blots were probed using antibodies against cleaved caspase 3 (Cell Signaling Technology (Danvers, MA, USA), #9664), pan-cadherin (Cell Signaling Technology, #4068), and β-actin (Santa Cruz (Santa Cruz, CA, USA), #sc-47778).
We then assessed whether Dxr2-017 induced apoptosis. We treated M14 and SK-MEL-5 cells with Dxr2-017 for three days at concentrations of up 10 and 20 µM, respectively, and measured cleaved caspase 3 using Western blot. […] In this assay, cells were grown in six-well plates and washed prior to lysis, and thus only adherent cells remained. […] Adherent cells are spread out and fusiform shaped, while detached/floating cells are round, as previously reported by us. […]
(A western blot detects proteins with antibodies after separation by electrophoresis.)

Another experiment has as its system M14 cells. The experiment can be described thus: Cell cycle analysis by flow cytometry, M14. Particulars: 20 nM, eight days. On the procedure: A total of 1 × 10^4 M14 cells and 1 × 10^4 SK-MEL-5 cells were seeded into 10 cm culture dishes. Twenty-four hours later, cells were treated in replicates of N = 3, with Dxr2-017 at 20 nM for M14 and 50 nM for SK-MEL-5, or vehicle for controls for a total of eight days, with replacement of media, along with Dxr2-017 or vehicle, at day five. Cells were then collected, filtered to obtain single-cell suspensions, equal numbers of cells were fixed in 1 mL of 70% ethanol at 4 °C for 1 h, washed with PBS, and resuspended in 1 mL of Telford reagent (1 mM EDTA disodium salt, 2.5 U/mL RNAse A, 75 µM Propidium Iodide, and 0.1% Triton X-100 in PBS), and then incubated at 4 °C overnight. Cells were analyzed by flow cytometry (FACSCalibur analyzer, BD Biosciences). Cells were gated on forward scatter (FSC) versus side scatter (SCC) to remove debris, followed by gating of single cells using PI (FL2)-Area versus PI (FL2)-Width. Cell cycle analysis was performed on the PI (FL2)-Area parameter, and the percentages of cells within G0/G1, S, and G2/M phases were determined using Modfit LT 4.0.5.
On the technique in general: Flow cytometry measures light scatter and fluorescence of single cells or particles in a stream.

In experiment [1] the test system is breast, prostate, colon, or lung cancer cell lines. The experiment can be described thus: Eight-day colony formation assays, summary across the cancer cell line panel. Particulars: 8 days. On the procedure: Initial colony formation screening assays were conducted on all acquired compounds and examined at five different compound concentrations. Those meeting efficacy criteria underwent a second-level screen examining nine different compound concentrations. Eight-day colony formation assays of cancer cells were performed as described by us. Briefly, 0.5–1.0 × 10^3 cells were seeded into each well of a 12-well plate. Twenty-four hours later, the compound was added at the following final concentrations: 0 (DMSO-only control), 0.017, 0.12, 0.82, 5.7, and 40 µM. For each concentration, there were N = 2 replicates, i.e., 2 wells. Eight days later, plates were stained with trypan blue, visualized under light microscopy, and groups of three or more cells were scored as colonies. The mean number of colonies was then determined and expressed as the percentage of controls. Second-level screens were performed on compounds inhibiting colony formation by greater than 50% at 40 µM in at least two cell lines. Second-level assays used the following final concentrations of compound: 0 (DMSO only), 0.0061, 0.018, 0.05, 0.16, 0.49, 1.48, 4.44, 13.33, and 40 µM. All compounds were stored under desiccated conditions in a sealed container at minus 20 °C upon arrival. One day prior to use, they were dissolved in DMSO, stored at minus 20 °C as stock solutions, thawed just prior to use, and not reused.
Human hematopoietic stem cell trilineage colony formation assays were performed as previously described by us. Briefly, human cord blood CD34+ cells (catalog #: 70008.5) were purchased from StemCell Technology Inc. and seeded at 1 × 10^4 cells per 35 mm dish. Cells were cultured in MethoCult™ Express (StemCell Technologies, Inc. (Vancouver, BC, Canada)) semisolid media, per the manufacturer’s instructions, in the presence of compound or vehicle (for controls). Compounds were added at final concentrations matching those used in the initial growth assay screens. At eight days, colonies (i.e., groups of ≥10 cells) were counted. At fourteen days, individual colonies of erythroid burst-forming units (BFU-E), colony-forming unit granulocyte–macrophage (CFU-GM), and colony-forming unit granulocyte, erythrocyte, monocyte, and megakaryocyte (CFU-GEMM) were identified based on the manufacturers’ morphologic characterization criteria. Assays were run in replicates of N = 2, and some were run in replicates of N = 4, as denoted. The mean number of colonies was then determined and expressed as the percentage of controls. The effect of each compound on inhibiting the growth of cancer cells relative to its toxic effects on normal bone marrow was evaluated. This was carried out by comparing colonies at 8 days for each cancer cell line to that of bone marrow. This information was used to calculate the efficacy ratio, as follows: efficacy ratio = (percent of remaining cancer cell colonies)/(percent of remaining bone marrow colonies). This was performed for all compounds at 40 µM and for selected compounds at 5.7 µM, as denoted. For compounds nominated for second-level screens, bone marrow colony formation assays were also repeated. Compounds were added at final concentrations matching those used in the initial screens.
We sought to identify compounds that would inhibit the growth of cancer cells, but that also did so selectively. Inhibition of cancer cell growth is a highly sought after attribute of anticancer agents. This was assessed by measuring the ability of a compound to inhibit cell growth in eight-day colony formation assays and examining concentrations ranging from 0.017 to 40 µM. Breast, colon, lung, and prostate cancer are four of the most common types of cancer in the United States, are major causes of cancer cell death, and were examined. […]

Another experiment deals with pan-cadherin. The experiment can be described thus: Western blot for pan-cadherin, SK-MEL-5. On the procedure: as §1
These findings led us to compare cleaved caspase 3 between adherent cells and floating cells. Cleaved caspase 3 is an indicator of programmed cell death, and its triggering by loss of cell attachment is an established means of detecting anoikis. Adherent cells were prepared as above. […]

For the compound `c1ccc2sc(-c3ccc(CNc4ccc5nnnn5n4)o3)nc2c1` [Dxr2-017], the “cleaved caspase 3, adherent and floating cells combined” value with cleaved caspase 3 is on record as “clear formation was observed”. Also, the “cleaved caspase 3, adherent cells only” value with cleaved caspase 3 is recorded as “did not see any induction of cleaved caspase 3; also recorded: no formation of cleaved caspase 3”. Further, in the experiment with M14 cells, the “effect on cell cycle parameters” value is given as “little-to-no change in cell cycle parameters”. The “efficacy ratio, mean ± SEM over cell lines with ratio below 0.5” value in experiment [1] (5.7 µM) came out at 0.25 ± 0.091; in experiment [1] (40 µM) it was 0.03 ± 0.01. Besides, in the experiment on pan-cadherin, the cadherin expression entry is reported as “decreased cadherin expression in a concentration-dependent manner”.
